Data on one compound can be found in US8138392B2, “Disease resistant plants” (The Samuel Roberts Noble Foundation, Inc., priority 2008, dated 2012).

Structures are written as SMILES. Entries after “also recorded” stand apart in the source; their conditions may differ.

The test system of this test is P. omnivora. The test is described as follows: in vitro fungal growth inhibition assay. In kind it is cell-based, Phymatotrichopsis omnivora.

`O=c1cc(-c2ccc(O)cc2)oc2cc(O)ccc12` [7,4-dihydroxyflavone]: for the setting “at 0.1 mM”, the “fungal growth inhibition in in vitro assays” value is recorded as “inhibited fungal growth”. Moreover, for the setting “no concentration stated”, the “inhibitory activity towards P. omnivora in in vitro assays” value is on record as “very high inhibitory activity; also recorded: inhibitory to P. omnivora”.
